# Experimental data from US20100256104A1, “NOVEL AMIDE COMPOUNDS” (ASTRAZENECA R&D, priority 2009, published 2010).
# pIC50: −log10 of the molar value.
# Target: T1, recombinant human GR (Homo sapiens, UniProt P04150)
# T1 construct: purchased Panvera/Invitrogen P2812 (kit P2893)
# T1 sequence (P04150 1-777): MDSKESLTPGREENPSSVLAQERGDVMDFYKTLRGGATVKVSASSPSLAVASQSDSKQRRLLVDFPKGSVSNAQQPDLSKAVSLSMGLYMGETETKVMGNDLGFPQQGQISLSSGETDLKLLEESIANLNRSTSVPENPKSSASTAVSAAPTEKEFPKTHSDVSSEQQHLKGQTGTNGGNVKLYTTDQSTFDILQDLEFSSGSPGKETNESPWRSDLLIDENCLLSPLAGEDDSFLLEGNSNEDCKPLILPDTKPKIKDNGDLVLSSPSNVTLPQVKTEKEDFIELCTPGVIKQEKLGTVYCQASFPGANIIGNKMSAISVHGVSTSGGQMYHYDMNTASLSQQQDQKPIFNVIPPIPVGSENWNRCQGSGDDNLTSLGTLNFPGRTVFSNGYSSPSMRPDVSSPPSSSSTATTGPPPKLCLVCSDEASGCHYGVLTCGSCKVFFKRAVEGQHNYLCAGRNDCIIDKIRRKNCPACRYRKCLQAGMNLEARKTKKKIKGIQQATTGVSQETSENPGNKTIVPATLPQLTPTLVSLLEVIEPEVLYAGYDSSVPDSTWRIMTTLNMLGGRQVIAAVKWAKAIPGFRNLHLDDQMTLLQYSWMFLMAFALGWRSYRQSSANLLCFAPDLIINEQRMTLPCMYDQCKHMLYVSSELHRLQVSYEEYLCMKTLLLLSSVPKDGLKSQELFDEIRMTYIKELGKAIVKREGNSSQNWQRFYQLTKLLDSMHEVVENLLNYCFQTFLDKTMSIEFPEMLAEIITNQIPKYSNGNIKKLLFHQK
# Assay: Human Glucocorticoid Receptor (GR) Assay, fluorescence polarization competition with GS Red tracer
# Settings: 2 hours at room temperature, 100% control 10 μM Dexamethasone, XLfit model 205, read-out: Inhibition of GR binding, IC50
# Description: Human Glucocorticoid Receptor (GR) Assay The assay is based on a commercial kit from Panvera/Invitrogen (Part number P2893). The assay technology is fluorescence polarization. The kit utilises recombinant human GR (Panvera, Part number P2812), a Fluoromone™ labelled tracer (GS Red, Panvera, Part number P2894) and a Stabilizing Peptide 10X (Panvera, Part number P2815). The GR and Stabilizing Peptide reagents are stored at −70° C. while the GS Red is stored at −20° C. Also included in the kit are 1M DTT (Panvera, Part number P2325, stored at −20° C.) and GR Screening buffer 10X (Panvera, Part number P2814, stored at −70° C. initially but once thawed stored at room temperature). Avoid repeated freeze/thaws for all reagents. The GR Screening buffer 10X comprises 100 mM potassium phosphate, 200 mM sodium molybdate, 1 mM EDTA and 20% DMSO. Test compounds (1 μL) and controls (1 μL) in 100% DMSO were added to black polystyrene 384-well plates (Greiner low volume black flat-bottom, part number 784076). 0% control was 100% DMSO and 100% control was 10 μM Dexamethasone. Background solution (8 μL; assay buffer 10X, Stabilizing Peptide, DTT and ice cold MQ water) was added to the background wells. GS Red solution (7 μL; assay buffer 10X, Stabilizing Peptide, DTT, GS Red and ice cold water) was added to all wells except background wells. GR solution (7 μL; assay buffer 10X, Stabilizing Peptide, DTT, GR and ice cold water) was added to all wells. The plate was sealed and incubated in a dark at room temperature for 2 hours. The plate was read in an Analyst plate reader (LJL Biosystems/Molecular Devices Corporation) or other similar plate reader capable of recording fluorescence polarization (excitation wavelength 530 nm, emission wavelength 590 nm and a dichroic mirror at 561 nm).
row,SMILES,pIC50
1,"COCCNC(=O)c1cccc(-n2ncc3c2C=C2CC[C@@H]4[C@H]([C@@H](O)C[C@@]5(C)[C@H]4CC[C@]5(OC(=O)COC)C(=O)SCF)[C@@]2(C)C3)c1 [Example 3, (1R,3aS,3bS,10aR,10bS,11S,12aS)-1-{[(Fluoromethyl)sulfanyl]carbonyl}-11-hydroxy-7-{3-[(2-methoxyethyl)carbamoyl]phenyl}-10a,12a-dimethyl-1,2,3,3a,3b,4,5,7,10,10a,10b,11,12,12a-tetradecahydrocyclopenta[5,6]naphtho[1,2-f]indazol-1-yl methoxyacetate]",8.80
2,"CCC(=O)O[C@]1(C(=O)SCC#N)CC[C@H]2[C@@H]3CCC4=Cc5c(cnn5-c5cccc(C(=O)NCCSC)c5)C[C@]4(C)[C@H]3[C@@H](O)C[C@@]21C [Example 6, (1R,3aS,3bS,10aR,10bS,11S,12aS)-1-{[(Cyanomethyl)sulfanyl]carbonyl}-11-hydroxy-10a,12a-dimethyl-7-(3-{[2-(methylsulfanyl)ethyl]carbamoyl}phenyl)-1,2,3,3a,3b,4,5,7,10,10a,10b,11,12,12a-tetradecahydrocyclopenta[5,6]naphtho[1,2-f]indazol-1-yl propanoate]",8.77
3,"CCC(=O)O[C@]1(C(=O)SCF)CC[C@H]2[C@@H]3CCC4=Cc5c(cnn5-c5cccc(C(=O)NCCSC)c5)C[C@]4(C)[C@H]3[C@@H](O)C[C@@]21C [Example 7, (1R,3aS,3bS,10aR,10bS,11S,12aS)-1-{[(Fluoromethyl)sulfanyl]carbonyl}-11-hydroxy-10a,12a-dimethyl-7-(3-{[2-(methylsulfanyl)ethyl]carbamoyl}phenyl)-1,2,3,3a,3b,4,5,7,10,10a,10b,11,12,12a-tetradecahydrocyclopenta[5,6]naphtho[1,2-f]indazol-1-yl propanoate]",8.85
4,"COCC(=O)O[C@]1(C(=O)SCF)CC[C@H]2[C@@H]3CCC4=Cc5c(cnn5-c5cccc(C(=O)NCCSC)c5)C[C@]4(C)[C@H]3[C@@H](O)C[C@@]21C [Example 8, (1R,3aS,3bS,10aR,10bS,11S,12aS)-1-{[(Fluoromethyl)sulfanyl]carbonyl}-11-hydroxy-10a,12a-dimethyl-7-(3-{[2-(methylsulfanyl)ethyl]carbamoyl}phenyl)-1,2,3,3a,3b,4,5,7,10,10a,10b,11,12,12a-tetradecahydrocyclopenta[5,6]naphtho[1,2-f]indazol-1-yl methoxyacetate]",8.74
5,"CSCCNC(=O)c1cccc(-n2ncc3c2C=C2CC[C@@H]4[C@H]([C@@H](O)C[C@@]5(C)[C@H]4CC[C@]5(OC(=O)C4CC4)C(=O)SCF)[C@@]2(C)C3)c1 [Example 10, (1R,3aS,3bS,10aR,10bS,11S,12aS)-1-{[(Fluoromethyl)sulfanyl]carbonyl}-11-hydroxy-10a,12a-dimethyl-7-(3-{[2-(methylsulfanyl)ethyl]carbamoyl}phenyl)-1,2,3,3a,3b,4,5,7,10,10a,10b,11,12,12a-tetradecahydrocyclopenta[5,6]naphtho[1,2-f]indazol-1-yl cyclopropanecarboxylate]",8.82
6,"CCC(=O)O[C@]1(C(=O)SCC#N)CC[C@H]2[C@@H]3CCC4=Cc5c(cnn5-c5cccc(C(=O)NCC(N)=O)c5)C[C@]4(C)[C@H]3[C@@H](O)C[C@@]21C [Example 11, (1R,3aS,3bS,10aR,10bS,11S,12aS)-7-{3-[(2-Amino-2-oxoethyl)carbamoyl]phenyl}-1-{[(cyanomethyl)sulfanyl]carbonyl}-11-hydroxy-10a,12a-dimethyl-1,2,3,3a,3b,4,5,7,10,10a,10b,11,12,12a-tetradecahydrocyclopenta[5,6]naphtho[1,2-f]indazol-1-yl propanoate]",8.43
7,"CCC(=O)O[C@]1(C(=O)SCC#N)CC[C@H]2[C@@H]3CCC4=Cc5c(cnn5-c5cccc(C(=O)NC6CCS(=O)(=O)C6)c5)C[C@]4(C)[C@H]3[C@@H](O)C[C@@]21C (stereo partly drawn) [Example 12, (1R,3aS,3bS,10aR,10bS,11S,12aS)-1-{[(Cyanomethyl)sulfanyl]carbonyl}-7-{3-[(1,1-dioxidotetrahydrothiophen-3-yl)carbamoyl]phenyl}-11-hydroxy-10a,12a-dimethyl-1,2,3,3a,3b,4,5,7,10,10a,10b,11,12,12a-tetradecahydrocyclopenta[5,6]naphtho[1,2-f]indazol-1-yl propanoate]",8.37

# Compounds with a higher pIC50, results first:
row,pIC50,SMILES
1,9.00,"CCC(=O)O[C@]1(C(=O)SCC#N)CC[C@H]2[C@@H]3CCC4=Cc5c(cnn5-c5cccc(C(=O)NCCOC)c5)C[C@]4(C)[C@H]3[C@@H](O)C[C@@]21C [Example 1, (1R,3aS,3bS,10aR,10bS,11S,12aS)-1-{[(Cyanomethyl)sulfanyl]carbonyl}-11-hydroxy-7-{3-[(2-methoxyethyl)carbamoyl]phenyl}-10a,12a-dimethyl-1,2,3,3a,3b,4,5,7,10,10a,10b,11,12,12a-tetradecahydrocyclopenta[5,6]naphtho[1,2-f]indazol-1-yl propanoate]"
2,9.09,"CCC(=O)O[C@]1(C(=O)SCF)CC[C@H]2[C@@H]3CCC4=Cc5c(cnn5-c5cccc(C(=O)NCCOC)c5)C[C@]4(C)[C@H]3[C@@H](O)C[C@@]21C [Example 2, (1R,3aS,3bS,10aR,10bS,11S,12aS)-1-{[(Fluoromethyl)sulfanyl]carbonyl}-11-hydroxy-7-{3-[(2-methoxyethyl)carbamoyl]phenyl}-10a,12a-dimethyl-1,2,3,3a,3b,4,5,7,10,10a,10b,11,12,12a-tetradecahydrocyclopenta[5,6]naphtho[1,2-f]indazol-1-yl propanoate]"
3,9.04,"COCCNC(=O)c1cccc(-n2ncc3c2C=C2CC[C@@H]4[C@H]([C@@H](O)C[C@@]5(C)[C@H]4CC[C@]5(OC(=O)C4CC4)C(=O)SCC#N)[C@@]2(C)C3)c1 [Example 4, (1R,3aS,3bS,10aR,10bS,11S,12aS)-1-{[(Cyanomethyl)sulfanyl]carbonyl}-11-hydroxy-7-{3-[(2-methoxyethyl)carbamoyl]phenyl}-10a,12a-dimethyl-1,2,3,3a,3b,4,5,7,10,10a,10b,11,12,12a-tetradecahydrocyclopenta[5,6]naphtho[1,2-f]indazol-1-yl cyclopropanecarboxylate]"
4,9.01,"COCCNC(=O)c1cccc(-n2ncc3c2C=C2CC[C@@H]4[C@H]([C@@H](O)C[C@@]5(C)[C@H]4CC[C@]5(OC(=O)C4CC4)C(=O)SCF)[C@@]2(C)C3)c1 [Example 5, (1R,3aS,3bS,10aR,10bS,11S,12aS)-1-{[(Fluoromethyl)sulfanyl]carbonyl}-11-hydroxy-7-{3-[(2-methoxyethyl)carbamoyl]phenyl}-10a,12a-dimethyl-1,2,3,3a,3b,4,5,7,10,10a,10b,11,12,12a-tetradecahydrocyclopenta[5,6]naphtho[1,2-f]indazol-1-yl cyclopropanecarboxylate]"
5,9.04,"CSCCNC(=O)c1cccc(-n2ncc3c2C=C2CC[C@@H]4[C@H]([C@@H](O)C[C@@]5(C)[C@H]4CC[C@]5(OC(=O)C4CC4)C(=O)SCC#N)[C@@]2(C)C3)c1 [Example 9, (1R,3aS,3bS,10aR,10bS,11S,12aS)-1-{[(Cyanomethyl)sulfanyl]carbonyl}-11-hydroxy-10a,12a-dimethyl-7-(3-{[2-(methylsulfanyl)ethyl]carbamoyl}phenyl)-1,2,3,3a,3b,4,5,7,10,10a,10b,11,12,12a-tetradecahydrocyclopenta[5,6]naphtho[1,2-f]indazol-1-yl cyclopropanecarboxylate]"
